The results in this text go back to patent publication EP0492113A2, “Herbicide resistant AHAS deletion mutants” (priority 1990, dated 1992).

Where “and” joins values, the source holds several entries; their conditions need not be identical. Equal entries are not always repeated.

Assay [1] concerns Wisconsin 38[W38] wild-type herbicide sensitive tobacco cultivar. The assay can be described thus: Postemergence spray of tobacco, susceptible control. It is filed as in vivo. Particulars: for plant growth: 25 days after spraying, Figure 2(a); for Tobacco Mean FW: (5 reps each): Control, four and one-half weeks. The source says: All three photographs were taken 25 days after spraying. In all photographs, control plants (a wild-type herbicide sensitive tobacco cultivar, Wisconsin 38[W38]) are in the front row. • (a) W38 Control and 10-1 Self - W38 represents the control and 10-1 the selfed transgenic tobacco progeny. At 0 g/ha Pursuit®, both the W38 and the 10-1 look similar. […] 0 x 10-1 represents W38 as the maternal parent (0) and 10-1 as the paternal parent. The results are very similar to that seen in the 10-1 selfed photograph. • (c) W38 Control and 10-1 x 0 - W38 as previously described. 10-1 x 0 represents 10-1 as the maternal parent and W38 as the paternal parent (0). The results are very similar to that seen in the 10-1 selfed photograph except that in this photo segregation of the herbicide resistance trait can be seen in the 10-1 progeny.
In a more quantitative assay, seed of selfed progeny of the transgenic tobacco plant (10-1) containing the Trp574 deletion mutation of Arabidopsis AHAS as well as seeds of the susceptible parental cultivar "Wisconsin 38" are planted in Metro Mix 350™ in 5" Azalea pots. The seedlings are thinned to the single most vigorous seedling after 2 days. Eleven days later, these plants are sprayed postemergence with Pursuit® at 0, 10, 20, 40, 80 and 160 g/ha. Five plants of each tobacco type (transgenic and control) are sprayed per herbicide rate. Tween 20™ is added at 0.25 v/v to the herbicide solutions prior to spraying. The herbicide is applied with a laboratory belt sprayer at a rate of 400 L/ha at a distance 18" above the plants with a belt speed of 8.2 sec/rev and sprayer nozzle #65015E. Plant heights are measured 1, 2, 3, and 4 weeks after treatment, plant fresh weight data is collected at four and one-half weeks.

In assay [2] the target is T1, Arabidopsis AHAS Trp574 deletion (pAC225) (Arabidopsis thaliana, UniProt P17597, DEL574-574).
T1 construct: made in house; host or cells: E. coli MF2000, vector pKK233-2
It is filed as biochemical. Particulars: increasing concentrations of herbicide, Figures 4 and 5. On the procedure:
(§1) AHAS enzyme assay (expression in E. coli) - The site directed mutants, pAC224 and pAC225, are utilized as templates for the generation of an E. coli based expression system. The insensitivity to herbicide is tested when the higher plant gene of interest is expressed in a bacterial strain devoid of any endogenous AHAS activity. To this end, the Nco1/Pst1 fragment of wild type Arabidopsis AHAS (pAC301), the Trp574-Leu substitution (pAC224) and the Trp574 deletion (pAC225) are subcloned into the Nco1/Pst1 site of the E. coli expression vector, pKK233-2 (purchased from Pharmacia). This expression plasmid contains an IPTG inducible promoter as well as a transcription termination sequence. Both regions surround an Nco1, HindIII and Pstl linker sequence that allows proper orientation of the gene of interest in relation to the bacterial promoter. Subcloning and ligation of the respective Ncol/Pstl fragments into Ncol/Pstl digested pKK233-2 DNA (ampicillin resistance) is as previously described. The ligation reaction is transformed into the E. coli strain, MF2000 [ilvB800:mu-1, Bg132, ilvI15, thi-1, argE3, RPSL31, (ara-leu, iIvHI) 863, mtl-1, xyl-5 galK2, lacYI, recAl]. This bacterial strain is devoid of endogenous AHAS activity. […]

In assay [3] the target is T2, Arabidopsis AHAS Trp574-Leu substitution (pAC224) (Arabidopsis thaliana, UniProt P17597, W574L).
T2 construct: made in house; host or cells: E. coli MF2000, vector pKK233-2
It counts as biochemical. Particulars: increasing concentrations of herbicide, Figures 4 and 5. On the procedure: as §1

The target in assay [4] is T3, AHAS produced by the Ser653 deletion (pAC230) (Arabidopsis thaliana, UniProt P17597, DEL653-653).
T3 construct: made in house; host or cells: E. coli MF2000
It counts as biochemical. The following applies: Figures 6 and 7.

Assay [5] relates to 10-1 Selfed. In words: Tobacco seed assay on herbicide medium, 10-1 selfed. It is filed as in vivo. The following applies: 5 µM in medium; twenty seeds per dish; after three weeks. How it is done:
Seeds resulting from transgenic plant 10-1 are also assayed for resistance to the imidazolinone Pursuit®. Seeds are plated onto medium containing Pursuit® at 0, 1.25, 2.5, 3.75, and 5.0 µM. Twenty seeds are plated per petri dish, with two dishes per treatment. Herbicide tolerance of seedlings is evaluated after three weeks. […]

T2 sequence (P17597 56-670 W574L): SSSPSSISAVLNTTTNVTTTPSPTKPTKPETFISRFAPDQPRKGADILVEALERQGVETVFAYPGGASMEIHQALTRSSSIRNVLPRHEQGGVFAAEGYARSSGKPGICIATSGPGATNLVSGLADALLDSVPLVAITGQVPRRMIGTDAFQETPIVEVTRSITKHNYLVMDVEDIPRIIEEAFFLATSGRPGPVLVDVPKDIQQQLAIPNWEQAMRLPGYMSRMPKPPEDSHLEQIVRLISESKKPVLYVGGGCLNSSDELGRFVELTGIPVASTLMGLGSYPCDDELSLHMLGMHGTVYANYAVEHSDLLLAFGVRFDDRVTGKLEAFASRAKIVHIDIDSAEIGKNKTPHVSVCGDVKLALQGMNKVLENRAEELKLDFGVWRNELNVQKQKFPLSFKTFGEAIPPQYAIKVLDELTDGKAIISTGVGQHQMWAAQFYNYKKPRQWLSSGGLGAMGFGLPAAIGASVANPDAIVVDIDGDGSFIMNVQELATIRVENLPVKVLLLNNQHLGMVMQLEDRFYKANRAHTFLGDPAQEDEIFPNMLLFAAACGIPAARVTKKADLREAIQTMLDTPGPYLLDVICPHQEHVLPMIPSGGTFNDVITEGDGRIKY
T1 sequence (P17597 other isoform, or with tags, fused parts or gaps DEL574-574): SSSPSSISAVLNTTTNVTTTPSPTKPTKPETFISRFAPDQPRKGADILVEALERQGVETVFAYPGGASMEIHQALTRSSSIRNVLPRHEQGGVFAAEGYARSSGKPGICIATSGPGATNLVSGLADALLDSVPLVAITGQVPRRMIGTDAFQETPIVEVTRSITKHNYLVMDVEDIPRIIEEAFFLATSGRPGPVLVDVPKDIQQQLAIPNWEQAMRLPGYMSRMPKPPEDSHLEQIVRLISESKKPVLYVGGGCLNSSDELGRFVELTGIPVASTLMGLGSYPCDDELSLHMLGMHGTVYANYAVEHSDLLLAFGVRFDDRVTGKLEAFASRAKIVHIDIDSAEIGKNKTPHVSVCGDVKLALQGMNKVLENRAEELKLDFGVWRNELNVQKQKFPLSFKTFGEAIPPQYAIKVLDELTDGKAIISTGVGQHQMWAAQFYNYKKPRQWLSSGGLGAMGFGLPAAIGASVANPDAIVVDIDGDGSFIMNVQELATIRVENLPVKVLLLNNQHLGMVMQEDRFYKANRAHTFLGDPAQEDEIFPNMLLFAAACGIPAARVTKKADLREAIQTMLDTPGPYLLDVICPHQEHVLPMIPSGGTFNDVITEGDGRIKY
T3 sequence (P17597 other isoform, or with tags, fused parts or gaps DEL653-653): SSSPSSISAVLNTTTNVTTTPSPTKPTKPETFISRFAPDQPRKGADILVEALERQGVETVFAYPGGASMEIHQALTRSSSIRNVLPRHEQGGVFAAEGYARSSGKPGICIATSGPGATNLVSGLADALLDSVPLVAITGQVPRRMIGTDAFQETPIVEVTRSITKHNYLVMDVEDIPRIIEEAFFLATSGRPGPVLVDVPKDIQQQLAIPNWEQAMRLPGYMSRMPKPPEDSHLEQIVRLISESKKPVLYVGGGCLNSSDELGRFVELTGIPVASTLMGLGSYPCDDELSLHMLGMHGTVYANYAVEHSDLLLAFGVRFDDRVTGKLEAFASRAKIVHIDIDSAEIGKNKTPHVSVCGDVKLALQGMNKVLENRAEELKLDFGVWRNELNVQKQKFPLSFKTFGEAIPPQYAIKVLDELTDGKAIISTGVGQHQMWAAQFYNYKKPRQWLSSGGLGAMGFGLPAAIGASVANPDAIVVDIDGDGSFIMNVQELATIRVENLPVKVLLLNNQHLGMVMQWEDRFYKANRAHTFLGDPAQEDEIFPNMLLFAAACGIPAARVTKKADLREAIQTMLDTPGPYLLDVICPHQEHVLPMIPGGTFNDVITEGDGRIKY

In the case of `CCc1cnc(C2=NC(C)(C(C)C)C(=O)N2)c(C(=O)O)c1` (stereo not shown) [Pursuit®], the plant growth result is “slightly inhibited” in assay [1] (10 g/ha post-emergence, compared to 10-1) and “almost completely inhibited” in assay [1] (starting at 20 g/ha post-emergence). In addition, the “Tobacco Mean FW: (5 reps each)” value came out at 8.1 g in assay [1] (10 g/ha postemergence); 2.0 g in assay [1] (20 g/ha postemergence); 0.8 g in assay [1] (40 g/ha postemergence); 0.6 g in assay [1] (80 g/ha postemergence); 0.2 g in assay [1] (160 g/ha postemergence). The “herbicide tolerance, applied postemergence” value in assay [1] (any of the rates tested (10 to 160 g/ha)) is reported as “does not display herbicide tolerance”. Also, the “sensitivity of AHAS enzyme to herbicide” value in assay [2] is reported as “insensitive”; in assay [3], “insensitive”; in assay [4], “highly resistant to inhibition”. Moreover, the “D (Damaged), number of seedlings per dish” value in assay [5] is 6 and 11. Further, the “R (Resistant), number of seedlings per dish” value in assay [5] was 6.
